Experiment: Tacrolimus tissue pharmacokinetics, oral vs intra-cecal ingestible device delivery
Assay type: in vivo, Yorkshire-Cross farm swine
Settings: swine; intra-cecal as compared to oral administration, 12 hours post-dose
Procedure: The primary objective of this study was to compare the tissue, plasma, rectal sample, and GI content pharmacokinetics of tacrolimus through oral versus intra-cecal ingestible device delivery in normal Yorkshire-Cross farm swine.
No further randomization procedure was employed.
Animals in Group 1 received an ingestible device containing 0.8 mL of vehicle solution (80% alcohol, 20% HCO-60). Animals in Group 2 received orally […] liquid formulation of tacrolimus at 4 mg/0.8 mL per animal (Prograf: 5 mg/mL). Animals in Group 3 received intra-cecally an ingestible device containing tacrolimus at 1 mg in 0.8 mL per ingestible device. […]
Approximately 200˜400 mg of rectal content were collected, if available, with a fecal swab (Copan Diagnostics Nylon Flocked Dry Swabs, 502CS01). The fecal swab was pre-weighed and weighed after collection in the collection tube (Sterile Tube and Cap No Media, PFPM913S), and the sample weight was recorded. […]
For tissue necropsy, small intestine fluid and cecal fluid were collected separately from all the animals into two separate square plastic bottles, and stored at −20° C. The length and diameter of the cecum and the colon was measured from one animal in each group and recorded for reference. […] All samples were weighed, and the tissue sample weights were recorded. […]

C=CC[C@@H]1/C=C(\C)C[C@H](C)C[C@H](OC)[C@H]2O[C@@](O)(C(=O)C(=O)N3CCCC[C@H]3C(=O)O[C@H](/C(C)=C/[C@@H]3CC[C@@H](O)[C@H](OC)C3)[C@H](C)[C@@H](O)CC1=O)[C@H](C)C[C@@H]2OC [tacrolimus]
mean concentration in the cecum tissue and the proximate colon tissue (FIG. 76): higher

— patent US11134889B2, “Treatment of a disease of the gastrointestinal tract with a SMAD7 inhibitor” (Progenity, Inc., priority 2016, dated 2021)
